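Five compound concentrations were applied to cells in 96-well plates for 48 hours; endpoints were derived by simple linear interpolation of the resulting dose-response curve. GI50: concentration for 50% inhibition of growth.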 Active and inactive are the calls of the source. No stated cut-off is given here; in the data, active = GI50 up to about 1.1 µM and inactive = higher. Where a SMILES comes first, the peptide text is derived from it. The star is where a group is joined. Boc = CC(C)(C)OC(=O)*; OBn = c1ccc(CO*)cc1
Experiments:
Assay in all cases: NCI anticancer screen, dose series, 48 h
[1] = test system: CCRF-CEM
[2] = test system: MCF7
[3] = test system: HCC 2998
[4] = test system: RPMI-8226
[5] = test system: SK-MEL-28
[6] = test system: NCI/ADR-RES
[7] = test system: UACC-257
[8] = test system: COLO 205
[9] = test system: OVCAR-8
[10] = test system: RXF 393
[11] = test system: SK-MEL-2
[12] = test system: SNB-75
[13] = test system: A498
[14] = test system: M14
[15] = test system: SF-268
[16] = test system: U-251
[17] = test system: Malme-3M
[18] = test system: EKVX
[19] = test system: SW-620
[20] = test system: MOLT-4

Measured: GI50

CC(C)Cn1cnc2c(SCc3ccccn3)nc(N)nc21
inactive: [1] > 100 µM | [2] > 100 µM | [3] > 100 µM | [4] > 100 µM | [5] > 100 µM | [6] > 100 µM | [7] > 100 µM | [8] > 100 µM | [9] > 100 µM | [10] > 100 µM | [11] > 100 µM | [12] 51.9 µM | [13] > 100 µM | [14] > 100 µM | [15] > 100 µM | [16] > 100 µM | [17] > 100 µM | [18] > 100 µM | [19] > 100 µM

CC(NC(=O)C(Cc1ccccc1)NC(=O)C(Cc1ccccc1)NC(=O)OC(C)(C)C)C(=O)OCc1ccccc1 (stereo not drawn) (Boc-Phe-Phe-Ala-OBn; configuration not given here)
inactive: [1] 58.3 µM | [2] 53.5 µM | [3] 54.2 µM | [4] 32.3 µM | [20] 54.7 µM | [6] > 100 µM | [7] > 100 µM | [8] 65.3 µM | [9] > 100 µM | [10] 30.7 µM | [11] > 100 µM | [12] 50.8 µM | [13] > 100 µM | [14] 48.4 µM | [15] > 100 µM | [16] 63.7 µM | [17] 93.1 µM | [18] > 100 µM | [19] > 100 µM

Cn1c(=O)c2c(nc3n(CC(O)CCl)c(=O)ccn23)n(C)c1=O (stereo not given)
inactive: [1] 5.19 µM | [2] 40.4 µM | [3] 58.7 µM | [4] 19.5 µM | [5] 66.7 µM | [20] 6.17 µM | [6] 19.3 µM | [7] 76.6 µM | [8] 36.8 µM | [9] 18.7 µM | [10] > 100 µM | [11] > 100 µM | [12] 29.1 µM | [13] 54.5 µM | [14] 52.7 µM | [15] 20.5 µM | [16] 44 µM | [18] 42.9 µM | [19] 46.8 µM

COn1cc(C=O)c2ccccc21
inactive: [2] 45.2 µM | [3] 21.8 µM | [4] > 68.1 µM | [5] 33.6 µM | [20] 33.2 µM | [6] > 70.8 µM | [7] > 78.9 µM | [8] > 100 µM | [9] > 93.8 µM | [10] 45.9 µM | [11] > 91.8 µM | [12] 33.7 µM | [13] 1.95 µM | [14] > 61.8 µM | [15] 68.4 µM | [16] 55.6 µM | [17] > 93.8 µM | [18] 23.7 µM | [19] 26 µM

CC(=N\N=C\c1ccccn1)/C(C)=N/N=C(C)/C(C)=N/N=C/c1ccccn1
inactive: [1] > 100 µM | [2] > 100 µM | [3] > 100 µM | [4] > 100 µM | [5] > 100 µM | [6] > 100 µM | [7] > 100 µM | [8] > 100 µM | [9] > 100 µM | [10] > 100 µM | [11] > 100 µM | [12] > 100 µM | [13] > 100 µM | [14] > 100 µM | [15] > 100 µM | [16] > 100 µM | [17] > 100 µM | [18] > 100 µM | [19] > 100 µM

O=C(C(Cl)=C(N1CCOCC1)N1CCOCC1)C(Cl)Cl
inactive: [1] 56.9 µM | [2] 94.2 µM | [3] > 100 µM | [4] > 100 µM | [5] > 100 µM | [20] > 100 µM | [6] > 100 µM | [7] > 100 µM | [8] > 100 µM | [9] > 100 µM | [10] > 100 µM | [13] > 100 µM | [14] > 100 µM | [15] > 100 µM | [17] > 100 µM | [18] > 100 µM | [19] > 100 µM

CCOC(=O)/C=C1\Nc2ccccc2C12CCc1c([nH]c3ccccc13)C2C(=O)OCC (stereo not given)
inactive: [1] 29 µM | [2] 17.5 µM | [3] 59.3 µM | [4] 7.52 µM | [5] 61.2 µM | [20] 8.79 µM | [6] 11.8 µM | [7] 24 µM | [8] 4.66 µM | [9] 88.7 µM | [10] > 100 µM | [11] 45.5 µM | [13] 30.1 µM | [14] 25.2 µM | [15] 30.1 µM | [16] > 100 µM | [17] 10.3 µM | [18] 18.8 µM | [19] 17.8 µM

CC(=O)O[C@H]1CC[C@@]2(C)C(=CC[C@@H]3[C@@H]2CC[C@]2(C)c4nc(Cl)ccc4C[C@@H]32)C1
inactive: [1] 20.6 µM | [3] 45 µM | [5] 45.6 µM | [20] 30.8 µM | [6] 47.4 µM | [7] 32.9 µM | [8] 39.1 µM | [9] 37.2 µM | [10] 33.3 µM | [12] 33.9 µM | [13] 87.3 µM | [14] 60 µM | [15] 49.8 µM | [16] 97.1 µM | [17] 61.1 µM | [18] 25.2 µM | [19] 59 µM
active: [2] 0.944 µM

O=C(NCP(=O)(c1ccccc1)c1ccccc1)OCc1ccccc1
inactive: [1] > 100 µM | [2] > 100 µM | [3] > 100 µM | [4] > 100 µM | [5] > 100 µM | [20] > 100 µM | [6] 73.5 µM | [8] > 100 µM | [9] > 100 µM | [10] 82.6 µM | [11] > 100 µM | [12] 6.65 µM | [13] > 100 µM | [14] > 100 µM | [15] 21.4 µM | [16] 84.5 µM | [17] > 100 µM | [18] > 100 µM | [19] > 100 µM

COc1cc(COC(=O)N2CCC2C(=O)O)c([N+](=O)[O-])cc1OC (stereo not given)
inactive: [1] > 100 µM | [2] > 100 µM | [3] > 100 µM | [4] > 100 µM | [5] > 100 µM | [20] > 100 µM | [6] > 100 µM | [7] > 100 µM | [8] > 100 µM | [9] > 100 µM | [10] > 100 µM | [12] > 100 µM | [13] > 100 µM | [14] > 100 µM | [15] > 100 µM | [16] > 100 µM | [17] > 100 µM | [18] > 100 µM | [19] > 100 µM

C=C1CC(OC(C)=O)/C=C(/C)CCC(C(C)(C)O)CC1O (stereo not given)
inactive: [1] > 100 µM | [2] > 100 µM | [3] > 100 µM | [5] > 100 µM | [20] > 100 µM | [6] > 100 µM | [7] > 100 µM | [8] > 100 µM | [9] > 100 µM | [10] > 100 µM | [11] > 100 µM | [13] > 100 µM | [14] > 100 µM | [15] > 100 µM | [16] > 100 µM | [17] > 100 µM | [18] > 100 µM | [19] > 100 µM

COc1ccc(CNc2nc3ccccc3nc2C(=O)O)cc1
inactive: [1] 83.4 µM | [2] > 100 µM | [3] > 100 µM | [4] 21.7 µM | [5] > 100 µM | [20] > 10 µM | [6] 38.9 µM | [7] > 100 µM | [8] 71.6 µM | [9] > 100 µM | [10] > 100 µM | [11] > 100 µM | [12] 93.8 µM | [13] > 100 µM | [14] > 100 µM | [15] > 100 µM | [16] 58.6 µM | [18] 78.2 µM | [19] > 100 µM

CC(C)=C1C(=O)C[C@]2(C)C[C@H]3O[C@]3(C)CC[C@@H]3O[C@@]3(C)CC[C@@H]12
inactive: [1] > 50 µM | [2] > 50 µM | [3] > 50 µM | [4] > 50 µM | [5] > 50 µM | [20] > 50 µM | [6] > 50 µM | [7] > 50 µM | [8] > 50 µM | [9] > 50 µM | [10] > 50 µM | [11] > 50 µM | [12] > 50 µM | [13] > 50 µM | [14] > 50 µM | [15] > 50 µM | [16] > 50 µM | [18] > 50 µM | [19] > 50 µM

Cc1c2cccc-2c(OCCOC(=O)n2ccnc2)cc2c1[nH]c1ccccc12
inactive: [2] 3.24 µM | [3] 2.82 µM | [4] 3.48 µM | [5] 2.02 µM | [20] 4.12 µM | [6] 2.82 µM | [7] 2.73 µM | [9] 2.18 µM | [10] 2.57 µM | [11] 1.98 µM | [13] 6.52 µM | [14] 3.46 µM | [15] 2.6 µM | [17] 2.79 µM | [19] 3.08 µM
active: [12] 1.04 µM | [18] 1.04 µM

Reference: ChEMBL document CHEMBL1201862, “PubChem BioAssay data set” (2004)
